Assay results published in patent US11634417B2 (Array BioPharma Inc., priority 2019, dated 2023).
pIC50: −log10 of the molar value. Where a name gives a salt, the structure may show the parent alone. Read-outs that look alike come from different tables or passages of the source.

Tests used:
[1] = molecular target: T1, full-length SHP2 (Homo sapiens, UniProt Q06124); assay: SHP2 enzymatic assay (fluorescence intensity kinetic assay, DiFMUP hydrolysis); format: biochemical; details: 1 nM His6-tagged SHP2(2-527), 1 μM activating peptide, 50 μM DiFMUP; single assay or mean of multiple assays; read-out: Biological Example 1 IC50
T1 construct: 1 nM full-length SHP2 (His6-tagged SHP2(2-527), recombinantly expressed in E. coli and purified in-house); His6; made in house; host or cells: E. coli
T1 sequence (Q06124 2-527): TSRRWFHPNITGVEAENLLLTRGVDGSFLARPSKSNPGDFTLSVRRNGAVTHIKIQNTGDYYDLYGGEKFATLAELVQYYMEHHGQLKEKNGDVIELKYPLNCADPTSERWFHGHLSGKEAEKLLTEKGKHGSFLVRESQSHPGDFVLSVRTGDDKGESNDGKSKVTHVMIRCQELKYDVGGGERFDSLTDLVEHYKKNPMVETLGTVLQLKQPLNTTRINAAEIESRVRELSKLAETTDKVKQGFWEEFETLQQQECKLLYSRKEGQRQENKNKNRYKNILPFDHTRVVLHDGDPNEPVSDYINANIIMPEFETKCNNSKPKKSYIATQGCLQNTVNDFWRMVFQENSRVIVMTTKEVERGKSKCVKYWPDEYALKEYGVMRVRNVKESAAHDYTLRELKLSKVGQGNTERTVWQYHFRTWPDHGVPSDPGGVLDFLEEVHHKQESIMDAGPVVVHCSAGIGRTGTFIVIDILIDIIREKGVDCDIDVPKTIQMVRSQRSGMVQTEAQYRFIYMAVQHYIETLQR
Description: A fluorescence intensity kinetic assay was configured for full-length SHP2 that monitors the amount of 6,8-difluoro-7-hydroxy-4-methylcoumarin (“DiFMU”) formed upon hydrolysis of 6,8-difluoro-4-methylumbelliferyl phosphate (“DiFMUP”) by SHP2. […] Low control wells lacked enzyme. The assays were initiated by the addition of a mixture of SHP2 and the activating peptide, and following a 15 second mix on an orbital shaker, were read in kinetic mode for 15 minutes (30 seconds/cycle) at ambient temperature on a PerkinElmer EnVision microplate reader (kEx=355 nm, kEm=460 nm). Initial velocities (slopes of the tangents at t=0) were estimated from exponential fits to the slightly nonlinear progress curves and then were converted to percent of control (“POC”) using the following equation:
[formula] • Where: xmax Average Uninhibited Controls • Xmin Average Background A 4-parameter logistic model was the fit to the POC data for each compound. From that fit, the IC50 was estimated and is defined as the concentration of compound at which the curve crosses 50 POC.

[2] = test system: ERK1/2 (Thr202/Tyr204) phosphorylation in KYSE520 cells; assay: Cellular Phospho-p44/42 MAPK (Erk1/2) (Thr202/Tyr204) assay, In-Cell Western; format: cell-based; details: Homo sapiens; for pIC50: KYSE-520, KYSE520 cells, 1 hour incubation, pERK signal normalized to GAPDH, single assay or mean of multiple assays, read-out: Biological Example 2 IC50; for IC50: KYSE-520, 1 h, read-out: Biological Example 2 IC50 (nM)
Description: Inhibition of ERK1/2 (Thr202/Tyr204) phosphorylation was determined by the following cellular assay, which comprises incubating cells with a compound for 1 hour and quantifying pERK signal by In-Cell Western on fixed cells and normalizing to GAPDH signal. KYSE520 cells were obtained from DSMZ and grown in RPMI supplemented with 10% fetal bovine serum, penicillin/streptomycin, 2 mM L-alanyl-L-glutamine dipeptide in 0.85% NaCl (Glutamax™), non-essential amino acids, and sodium pyruvate. Cells were plated in 96-well plates at 30,000 cells/well and allowed to attach overnight at 37° C./5% CO2. Cells were treated with compounds prepared as a 10-point, 1:3 dilution series (range: 20 μM-1 nM), with a final DMSO concentration of 0.5%. After 1 hour incubation, cells were fixed in 3.7% formaldehyde in Dulbecco's phosphate-buffered saline (“dPBS”) at room temperature for 20 minutes. Cells were then washed with dPBS and permeabilized in 100% MeOH at room temperature for 10 minutes. Following permeabilization, cells were washed in dPBS and incubated in LI-COR Blocking Buffer (LI-COR Biosciences, Cat #927-40000) for 1 hour or longer. Plates were then incubated with an antibody specific for the MEK-dependent ERK1/2 phosphorylation sites, threonine 202 and tyrosine 204 (Cell Signaling Technologies; Cat #9101), downstream of SHP2 in the MAP kinase signal transduction pathway, as well as GAPDH (Millipore; Cat #MAB374). pErk1/2 (Thr202/Tyr204) antibody was diluted in LI-COR blocking buffer containing 0.05% polysorbate-20 (Tween-20) at 1:250; GAPDH was diluted at 1:2,500. The plates were incubated overnight at 4° C. After washing with PBS/0.05% Tween-20, the cells were incubated with fluorescently-labeled secondary antibodies (Anti-rabbit-Alexa Flour680, Invitrogen Cat #A21109; Anti-mouse-IRDye800CW, Li-cor Bioscieces Cat #926-32210, both at 1:1000 dilution) for 1 hour. Cells were then washed, as above, and analyzed for fluorescence at both 680 nm and 800 nm wavelengths using the Aerius Infrared Imaging System (LI-COR Biosciences, Model 9250). Phosphorylated Erk1/2 ([…]) signal was normalized to GAPDH signal for each well. IC50 values were calculated from the normalized values using a 4-parameter fit in BioAssay software. The reported IC50 in Table 2 may be from a single assay or the mean of multiple assays.

Compound | pIC50 [1] | pIC50 [2] | IC50 [2] [nM]
Cn1ccc2c(Sc3cnc(N4CCC5(CC4)Cc4ccccc4[C@H]5N)nn3)ccnc21 [Example 73, (S)-1′-(6-((1-methyl-1H-pyrrolo[2,3-b]pyridin-4-yl)thio)-1,2,4-triazin-3-yl)-1,3-dihydrospiro[indene-2,4′-piperidin]-1-amine] | 7.49 | 8.22 | –
Nc1nccc(Sc2cnc(N3CCC4(CC3)Cc3nc(Cl)sc3C4N)nn2)c1Cl (stereo not shown) [Example 76, 1′-(6-((2-amino-3-chloropyridin-4-yl)thio)-1,2,4-triazin-3-yl)-2-chloro-4,6-dihydrospiro[cyclopenta[d]thiazole-5,4′-piperidin]-6-amine] | 7.39 | 8.40 | –
Nc1nccc(Sc2cnc(N3CCC4(CC3)Cc3ccccc3[C@H]4N)nn2)c1Br [Example 52, (S)-1′-(6-((2-amino-3-bromopyridin-4-yl)thio)-1,2,4-triazin-3-yl)-1,3-dihydrospiro[indene-2,4′-piperidin]-1-amine] | 7.57 | 8.70 | –
Cc1nc(N2CCC3(CC2)CO[C@@H](C)[C@H]3N)nnc1-c1cccc(Cl)c1Cl [Example 5, (3S,4S)-8-(6-(2,3-dichlorophenyl)-5-methyl-1,2,4-triazin-3-yl)-3-methyl-2-oxa-8-azaspiro[4.5]decan-4-amine] | 7.55 | 6.47 | –
Nc1nccc(Sc2cnc(N3CCC4(CC3)Cc3ncccc3[C@@H]4N)nn2)c1Cl [Example 16, (R)-1′-(6-((2-amino-3-chloropyridin-4-yl)thio)-1,2,4-triazin-3-yl)-5,7-dihydrospiro[cyclopenta[b]pyridine-6,4′-piperidin]-5-amine trihydrochloride] | 6.76 | 7.31 | –
Nc1nccc(Sc2cnc(N3CCC4(CC3)Cc3ccccc3[C@H]4N)nn2)c1C1CC1 [Example 19, (S)-1′-(6-((2-amino-3-cyclopropylpyridin-4-yl)thio)-1,2,4-triazin-3-yl)-1,3-dihydrospiro[indene-2,4′-piperidin]-1-amine] | 7.36 | 6.68 | –
N[C@@H]1c2ccccc2CC12CCN(c1ncc(Cc3ccccc3)nn1)CC2 [Example 33, (S)-1′-(6-benzyl-1,2,4-triazin-3-yl)-1,3-dihydrospiro[indene-2,4′-piperidin]-1-amine] | 7.01 | 6.44 | –
Nc1nccc(Sc2cnc(N3CCC4(CC3)Cc3cc(Cl)ccc3[C@H]4N)nn2)c1Cl [Example 17, (S)-1′-(6-((2-amino-3-chloropyridin-4-yl)thio)-1,2,4-triazin-3-yl)-5-chloro-1,3-dihydrospiro[indene-2,4′-piperidin]-1-amine] | 7.60 | 8.05 | –
Nc1nccc(Sc2cnc(N3[C@H]4CC[C@H]3CC(N)C4)nn2)c1Cl (stereo partly drawn) [Example 3, (1R,3s,5S)-8-(6-((2-amino-3-chloropyridin-4-yl)thio)-1,2,4-triazin-3-yl)-8-azabicyclo[3.2.1]octan-3-amine] | 6.20 | 5.89 | –
N[C@@H]1c2ccccc2CC12CCN(c1ncc(Sc3cnc4ccccn34)nn1)CC2 [Example 71, (S)-1′-(6-(imidazo[1,2-a]pyridin-3-ylthio)-1,2,4-triazin-3-yl)-1,3-dihydrospiro[indene-2,4′-piperidin]-1-amine] | 7.26 | 6.82 | –
N[C@@H]1c2ccccc2CC12CCN(c1ncc([Se]c3ccccc3)nn1)CC2 [Example 40, (S)-1′-(6-(phenylselanyl)-1,2,4-triazin-3-yl)-1,3-dihydrospiro[indene-2,4′-piperidin]-1-amine] | 8.10 | – | –
Nc1nccc(Sc2cnc(N3CCC4(CC3)Cc3ccccc3[C@@H]4N)nn2)c1Cl [Example 20, (R)-1′-(6-((2-amino-3-chloropyridin-4-yl)thio)-1,2,4-triazin-3-yl)-1,3-dihydrospiro[indene-2,4′-piperidin]-1-amine] | – | – | 206
Nc1nccc(Sc2cnc(N3C4CCC3CC3(Cc5ccccc5[C@H]3N)C4)nn2)c1Cl (stereo partly drawn) [Example 78, (1′S)-8-(6-((2-amino-3-chloropyridin-4-yl)thio)-1,2,4-triazin-3-yl)-1′,3′-dihydro-8-azaspiro[bicyclo[3.2.1]octane-3,2′-inden]-1′-amine] | 4.82 | – | –
N[C@@H]1c2ccccc2CC12CCN(c1ncc(Sc3cnc4ncccn34)nn1)CC2 [Example 68, (S)-1′-(6-(imidazo[1,2-a]pyrimidin-3-ylthio)-1,2,4-triazin-3-yl)-1,3-dihydrospiro[indene-2,4′-piperidin]-1-amine] | 7.48 | – | –
Nc1nccc(Sc2cnc(N3CCC4(CC3)Cc3ccccc3[C@H]4N)nn2)c1Cl [Example 6, (S)-1′-(6-((2-amino-3-chloropyridin-4-yl)thio)-1,2,4-triazin-3-yl)-1,3-dihydrospiro[indene-2,4′-piperidin]-1-amine] | – | – | 2
N[C@@H]1c2ccccc2CC12CCN(c1ncc(N3CCc4cnccc43)nn1)CC2 [Example 15, (S)-1′-(6-(2,3-dihydro-1H-pyrrolo[3,2-c]pyridin-1-yl)-1,2,4-triazin-3-yl)-1,3-dihydrospiro[indene-2,4′-piperidin]-1-amine] | 5.10 | – | –
[2H][C@@]1(N)c2ccccc2CC12CCN(c1ncc(Sc3ccnc(N)c3Cl)nn1)CC2 [Example 74, (S)-1′-(6-((2-amino-3-chloropyridin-4-yl)thio)-1,2,4-triazin-3-yl)-1,3-dihydrospiro[indene-2,4′-piperidin]-1-d-1-amine] | – | – | 1
C[C@@H]1OCC2(CCN(c3ncc(Sc4ccnc(N)c4F)nn3)CC2)[C@@H]1N [Example 21, (3S,4S)-8-(6-((2-amino-3-fluoropyridin-4-yl)thio)-1,2,4-triazin-3-yl)-3-methyl-2-oxa-8-azaspiro[4.5]decan-4-amine] | 4.95 | – | –
C[C@@H]1OCC2(CCN(c3ncc(Sc4ccc(N)nc4C(F)(F)F)nn3)CC2)[C@@H]1N [Example 56, (3S,4S)-8-(6-((6-amino-2-(trifluoromethyl)pyridin-3-yl)thio)-1,2,4-triazin-3-yl)-3-methyl-2-oxa-8-azaspiro[4.5]decan-4-amine] | 5.86 | – | –
N[C@@H]1c2ccccc2CC12CCN(c1ncc(Oc3cnc4[nH]ccc4c3)nn1)CC2 [Example 72, (S)-1′-(6-((1H-pyrrolo[2,3-b]pyridin-5-yl)oxy)-1,2,4-triazin-3-yl)-1,3-dihydrospiro[indene-2,4′-piperidin]-1-amine] | 4.79 | – | –
[2H][C@]1(N)c2ccccc2CC12CCN(c1ncc(Sc3ccnc(N)c3Cl)nn1)CC2 [Example 75, (R)-1′-(6-((2-amino-3-chloropyridin-4-yl)thio)-1,2,4-triazin-3-yl)-1,3-dihydrospiro[indene-2,4′-piperidin]-1-d-1-amine] | – | – | 100
